Results as given in paper PMC11822212, “High-throughput screening identifies Aurora kinase B as a critical therapeutic target for Merkel cell carcinoma” (Nature Communications, 2025).

Test: qHTS cell viability (CellTiter-Glo, 72 h; primary screen), control cell line
Format: cell-based, mouse
Conditions: mouse, read-out: Percent viability

SMILES: COCCn1c2c([n+](Cc3cnccn3)c1C)C(=O)c1ccccc1C2=O [sepantronium bromide, reference compound]
- viability at 72 h, 15.4 µM (NIH-3T3 cells (control cell line), 3T3, Log (M) -4.81358): 62.5%
- viability at 72 h, 5.12 µM (NIH-3T3 cells (control cell line), 3T3, Log (M) -5.2907): 69.8%
- viability at 72 h, 1.71 µM (NIH-3T3 cells (control cell line), 3T3, Log (M) -5.76782): 96.1%
- viability at 72 h, 0.569 µM (NIH-3T3 cells (control cell line), 3T3, Log (M) -6.24494): 104%
- viability at 72 h, 190 nM (NIH-3T3 cells (control cell line), 3T3, Log (M) -6.72207): 100%
- viability at 72 h, 63.2 nM (NIH-3T3 cells (control cell line), 3T3, Log (M) -7.19919): 100%
- viability at 72 h, 21.1 nM (NIH-3T3 cells (control cell line), 3T3, Log (M) -7.67631): 104%
- viability at 72 h, 46.1 µM (NIH-3T3 cells, 3T3, Log (M) -4.33646): 20.8%
- viability at 72 h, 7.02 nM (NIH-3T3 cells, 3T3, Log (M) -8.15343): 103%
- viability at 72 h, 2.34 nM (NIH-3T3 cells, 3T3, Log (M) -8.63055): 100%
- viability at 72 h, 0.78 nM (NIH-3T3 cells, 3T3, Log (M) -9.10767): 100%
